Assay results published in US9855270B2, “Methods and compositions for modulating estrogen receptor mutants” (priority 2014, dated 2018).
Read-outs that look alike come from different tables or passages of the source.

Assays:
[1] = system: MCF-7 cells stably expressing UbC HA-ER-α wild-type; assay: MCF-7 Stable Cell Line Viability (UbC HA-ER-α series); format: cell-based; parameters: Percent inhibition compared to vehicle: concentration or dose not given beside the values; conditions: UbC HA-ER-α Wild-type; for Percent inhibition compared to vehicle: 5-Day Incubation; for Efficacy (Emax): Day 5 relative to Day 0
From the text: (§1) MCF-7 Mutant ER-α Stable Cell Line Generation: MCF-7 cells stably expressing wild-type or ER-α mutants were generated by subcloning ESR1 wild-type and mutant cDNAs containing an amino terminal hemagglutinin tag into pCDH-EF1-MCS-(PGK-Puro) (referred to as EF1 HA-ER-α) and pCDH-UbC-MCS-EF1-Hygro (referred to as UbC HA-ER-α) (System Biosciences). The resulting plasmids, in addition to an empty vector negative control, were subsequently cotransfected into HEK293T cells with the pPACKH1 packaging plasmid mix (System Biosciences) according to the manufacturer's protocol. Four days post transfection lentiviral particles were purified from the cell medium, tiered and stored at −80° C. MCF-7 cells were transduced with the purified viral particles and stable cell lines were selected by growth in RPMI containing 10% FBS plus 1 μG/mL puromycin or 200 μG/mL hygromycin for pCDH-EF1-MCS-(PGK-Puro) and pCDH-UbC-MCS-EF1-Hygro, respectively.
(§2) MCF-7 Stable Cell Line Viability: MCF-7 cells were enumerated with a hemacytometer adjusted to a concentration of 40,000 cells per mL in Phenol Free RPMI containing 10% CSS with NEAA and Sodium Pyruvate. 16 microliters of the cell suspension was added to each well of a 384 well tissue culture treated white clear bottom polystyrene plate (Corning) using a Matrix 16 channel electronic pipette. The cells were incubated overnight to allow the cells to adhere. The following day, 16 microliters of Phenol Free RPMI containing 10% CSS with NEAA and Sodium Pyruvate was added to the wells of one plate, followed by 16 μL of CellTiter-Glo (Promega, Madison Wis.) luminescent cell viability reagent using a Matrix 16 channel electronic pipette. […] The “average” of the relative luminescence units (RLUs) of the wells are considered to be the baseline value at time=zero. In addition, a 10 point, 1:5 serial dilution in DMSO (Sigma-Aldrich) was performed using Matrix 12 channel electronic pipette, including DMSO only as […]. 4 μL of each dilution was then added to 196 μL of RPMI containing 10% CSS with NEAA and Sodium Pyruvate. 16 μL of medium containing compound was added to the cells at a final concentration ranging from 10 μM to 5 pM. Compound dilution in media and subsequent addition to cells were carried out using Matrix 12 channel electronic pipettes. After 5 day compound exposure, 16 μL of CellTiter-Glo (Promega, Madison Wis.) luminescent cell viability reagent was added to the cells using a Matrix 16 channel electronic pipette. CellTiter-Glo added to 32 μL of medium without cells was used to obtain a background value. […] The relative luminescence units (RLUs) of each well were measured, and relative proliferation (fold) of each sample was determined as follows: (RLU sample−RLU background)/(RLU at T=0)=relative proliferation
(§3) The UbC promoter is reported by the manufacturer (System Biosciences) to express low to moderate RNA levels while the EF1 promoter expresses high levels (System Biosciences).

[2] = system: MCF-7 cells (negative control); assay: as above; format: cell-based; parameters: Percent inhibition compared to vehicle: concentration or dose not given beside the values
From the text: as §1, §2, §3

[3] = system: MCF-7 cells transduced with an empty EF1 lentiviral vector (negative control); assay: MCF-7 Stable Cell Line Viability (EF1 HA-ER-α series); format: cell-based; parameters: Percent inhibition compared to vehicle: concentration or dose not given beside the values; conditions: for Efficacy (Emax): Day 5 relative to Day 0; for EC50: read-out: Potency (EC50; nM); for Percent inhibition compared to vehicle: 5-Day Incubation
From the text: as §1, §2, §3

[4] = system: MCF-7 cells stably expressing EF1 HA-ER-α wild-type; assay: as above; format: cell-based; parameters: Percent inhibition compared to vehicle: concentration or dose not given beside the values; conditions: EF1 HA-ER-α Wild-type; for Percent inhibition compared to vehicle: 5-Day Incubation; for Efficacy (Emax): Day 5 relative to Day 0
From the text: as §1, §2, §3

[5] = system: MCF-7 cells stably expressing ER-α mutants; conditions: UbC and EF1-derived lines; agonist mode
Method: Potency and efficacy of ERM 1-3 were measured in vitro in ER dependent transcriptional reporter assays and viability assays of MCF-7 cells stably expressing ER-α mutants.
as §1
MCF-7 Stable Cell Line Viability: MCF-7 cells were enumerated with a hemacytometer adjusted to a concentration of 40,000 cells per mL in Phenol Free RPMI containing 10% CSS with NEAA and Sodium Pyruvate. 16 microliters of the cell suspension was added to each well of a 384 well tissue culture treated white clear bottom polystyrene plate (Corning) using a Matrix 16 channel electronic pipette. The cells were incubated overnight to allow the cells to adhere. […] The “average” of the relative luminescence units (RLUs) of the wells are considered to be the baseline value at time=zero. […] The relative luminescence units (RLUs) of each well were measured, and relative proliferation (fold) of each sample was determined as follows: (RLU sample−RLU background)/(RLU at T=0)=relative proliferation
Potency and efficacy of ERM 4-23 were measured in vitro in ER dependent transcriptional reporter assays and viability assays of MCF-7 cells stably expressing ER-α mutants.

[6] = molecular target: T1, wild-type ER-α (Homo sapiens, UniProt P03372)
T1 sequence (P03372 1-595): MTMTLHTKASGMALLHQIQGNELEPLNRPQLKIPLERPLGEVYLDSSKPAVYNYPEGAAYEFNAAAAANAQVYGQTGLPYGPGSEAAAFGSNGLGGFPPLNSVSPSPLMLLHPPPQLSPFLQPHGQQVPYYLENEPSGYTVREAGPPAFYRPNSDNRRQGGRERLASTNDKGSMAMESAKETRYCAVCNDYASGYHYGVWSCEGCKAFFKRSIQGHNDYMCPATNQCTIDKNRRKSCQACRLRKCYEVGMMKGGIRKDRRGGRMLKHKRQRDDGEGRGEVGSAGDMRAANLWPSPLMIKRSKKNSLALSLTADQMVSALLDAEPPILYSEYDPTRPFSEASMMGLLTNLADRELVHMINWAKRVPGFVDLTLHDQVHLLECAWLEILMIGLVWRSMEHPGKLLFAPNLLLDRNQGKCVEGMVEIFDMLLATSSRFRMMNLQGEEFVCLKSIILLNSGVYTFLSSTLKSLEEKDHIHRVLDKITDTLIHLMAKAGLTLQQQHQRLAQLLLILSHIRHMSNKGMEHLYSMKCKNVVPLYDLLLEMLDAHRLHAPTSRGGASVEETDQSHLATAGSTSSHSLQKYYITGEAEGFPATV

[7] = Agonist Mode, −E2, read-out: Potency (EC50; nM)
[8] = Antagonist Mode, +E2, read-out: Potency (EC50; nM)
[9] = Receptor None (MCF-7 negative control), Agonist Mode, −E2, 5-Day Incubation
[10] = Receptor None (MCF-7 negative control), Agonist Mode, −E2, Day 5 relative to Day 0
[11] = Receptor None (MCF-7 negative control), Antagonist Mode, +E2, 5-Day Incubation
[12] = Receptor None (MCF-7 negative control), Antagonist Mode, +E2, Day 5 relative to Day 0
[13] = Receptor None (empty EF1 lentiviral vector), Agonist Mode, −E2
[14] = Receptor None (empty EF1 lentiviral vector), Antagonist Mode, +E2
[15] = Homo sapiens, MCF7, read-out: Potency (EC50; nM), Agonist Mode, −E2
[16] = Homo sapiens, MCF7, Receptor None (empty EF1 lentiviral vector), Agonist Mode, −E2
[17] = Homo sapiens, MCF7, Receptor None (empty EF1 lentiviral vector), Antagonist Mode, −E2 (Table 27)
[18] = Homo sapiens, MCF7, read-out: Potency (EC50; nM), Antagonist Mode, −E2 (Table 27)
[19] = Homo sapiens, MCF7, read-out: Potency (EC50; nM), Antagonist Mode, +E2

Compound	Percent inhibition compared to vehicle ([1]; Agonist Mode, −E2) [%]	Efficacy (Emax) ([1]; Agonist Mode, −E2)	Percent inhibition compared to vehicle ([1]; Antagonist Mode, +E2) [%]	Efficacy (Emax) ([1]; Antagonist Mode, +E2)	Percent inhibition compared to vehicle [2, 9] [%]	Efficacy (Emax) [2, 10]	Percent inhibition compared to vehicle [2, 11] [%]	Efficacy (Emax) [2, 12]	Efficacy (Emax) [3, 13]	Percent inhibition compared to vehicle [3, 14] [%]	Efficacy (Emax) [3, 14]	Percent inhibition compared to vehicle ([4]; Agonist Mode, −E2) [%]	Efficacy (Emax) ([4]; Agonist Mode, −E2)	Percent inhibition compared to vehicle ([4]; Antagonist Mode, +E2) [%]	Efficacy (Emax) ([4]; Antagonist Mode, +E2)	EC50 [1, 15] [nM]	EC50 [3, 16] [nM]	EC50 [3, 17] [nM]	EC50 [4, 15] [nM]	EC50 [4, 18] [nM]	other results
CCC(=C(c1ccc(O)cc1)c1ccc(OCCN(C)C)cc1)c1ccccc1 [4-Hydroxytamoxifen]	14	1.58 ± 0.16	68	1.57 ± 0.08	19	1.42 ± 0.43	58	1.34 ± 0.07	1.49 ± 0.06	60	1.60 ± 0.08	30	3.99 ± 0.38	40	4.05 ± 0.36						EC50 [1, 7]: 0.626 ± 0.528 nM; EC50 [1, 8]: 2.95 ± 2.51 nM; EC50 ([2]; Receptor None (MCF-7 negative control), Agonist Mode, −E2, read-out: Potency (EC50; nM)): 263 ± 525 nM; EC50 ([2]; Receptor None (MCF-7 negative control), Antagonist Mode, +E2, read-out: Potency (EC50; nM)): 2.47 ± 1.78 nM; EC50 [3, 13]: 0.531 ± 0.381 nM; EC50 [3, 14]: 2.32 ± 0.599 nM; EC50 ([3]; Receptor None (empty EF1 lentiviral vector), Antagonist Mode, −E2 (Table 27)): 0.531 ± 0.381 nM; EC50 [4, 7]: 0.186 ± 0.04 nM; EC50 [4, 8]: 5.16 ± 0.137 nM; EC50 ([4]; Antagonist Mode, −E2 (Table 27), read-out: Potency (EC50; nM)): 0.186 ± 0.04 nM; efficacy compared with fulvestrant and ERM 4-23 (in words) [5]: reduced efficacy on all the mutations tested
C[C@]12CC[C@@H]3c4ccc(O)cc4CC[C@H]3[C@@H]1CC[C@@H]2O [17β-Estradiol]		4.43 ± 0.88		5.12 ± 1.52		4.12 ± 0.88					4.24 ± 0.90		7.35 ± 1.28		6.67 ± 1.25	0.101 ± 0.16	0.02 ± 0.001	0.02 ± 0.001	0.518 ± 0.699	0.518 ± 0.699	EC50 ([2]; Homo sapiens, MCF7, Receptor None (MCF-7 negative control), Agonist Mode, −E2, read-out: Potency (EC50; nM)): 0.279 ± 0.518 nM
C[C@]12CC[C@@H]3c4ccc(O)cc4C[C@@H](CCCCCCCCC[S+]([O-])CCCC(F)(F)C(F)(F)F)[C@H]3[C@@H]1CC[C@@H]2O (stereo partly drawn) [Fulvestrant]	37	1.17 ± 0.13	75	1.23 ± 0.09	28	1.27 ± 0.24	64	1.15 ± 0.01	1.09 ± 0.16	74	1.04 ± 0.15	63	2.12 ± 0.23	70	2.04 ± 0.10	0.08 ± 0.042	0.178 ± 0.129	0.178 ± 0.129	0.895 ± 0.173	0.895 ± 0.173	EC50 [1, 19]: 0.516 ± 0.479 nM; EC50 ([2]; Homo sapiens, MCF7, read-out: Potency (EC50; nM), Receptor None (MCF-7 negative control), Agonist Mode, −E2): 0.05 ± 0.017 nM; EC50 ([2]; Homo sapiens, MCF7, read-out: Potency (EC50; nM), Receptor None (MCF-7 negative control), Antagonist Mode, +E2): 0.327 ± 0.324 nM; Efficacy (Emax) ([6]; Agonist Mode, −E2, relative to vehicle treated wild-type ER-α): 0.15 ± 0.09; Efficacy (Emax) ([6]; Antagonist Mode, +E2, relative to vehicle treated wild-type ER-α): 0.06 ± 0.08; EC50 ([3]; Homo sapiens, MCF7, Receptor None (empty EF1 lentiviral vector), Antagonist Mode, +E2): 1.44 ± 0.156 nM; Percent inhibition compared to vehicle [3, 13]: 51%; EC50 [4, 19]: 3.97 ± 0.955 nM
